Broadly, the EC50 is the midpoint of the concentration-response curve. What is called IC50 is the concentration at which inhibition is half-maximal. One may read the AC50 as the midpoint of the concentration-response curve, whichever way the signal moves.

One experiment concerns the target T1, PD-1/PD-L1 interaction (Homo sapiens, UniProt Q9NZQ7).
T1 construct: expressed in transfected cells; host or cells: CHO cells (aAPC-PD-L1) co-cultured with Jurkat cells overexpressing PD-1 and an NFAT-luciferase reporter
Briefly: PD-1/PD-L1 NFAT reporter co-culture assay. Particulars: Jurkat PD-1 NFAT-luciferase cells co-cultured with aAPC-PD-L1 CHO cells, 6 hrs at 37° C.; read-out: EC50 NFAT Luciferase. It is filed as cell-based. Summed up: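 Compounds are scored by restoration of NFAT-luciferase signal in PD-1-expressing Jurkat cells cultured 6 h at 37 °C on CHO cells presenting anti-CD3 and PD-L1; EC50 values derive from four-parameter curve fitting.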

The target in the next experiment is PD-1/PD-L1 (Homo sapiens, UniProt Q9NZQ7). Description: PD-1/PD-L1 biochemical protein-protein interaction assay (ALPHA). The format is binding. To be noted: 0.3 nM His tagged PD-L1, 2.5 nM biotinylated Fc-PD-1, 60 minutes at 25° C., read-out: IC50 PD-L1-PD-1 Alpha IC50-mono PD-L1-fcP-D1. Summed up: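 IC50 values derive from four-parameter fits of ALPHA signal decrease. Assay: 0.3 nM His-tagged PD-L1 with 2.5 nM biotinylated Fc-PD-1, Hepes pH 7.4 with 0.005% Tween 20 and 0.01% BSA, 60 min at 25° C, then anti-His acceptor and streptavidin donor beads.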
PD-1/PD-L1, sequence (Q9NZQ7 19-238 limits assumed): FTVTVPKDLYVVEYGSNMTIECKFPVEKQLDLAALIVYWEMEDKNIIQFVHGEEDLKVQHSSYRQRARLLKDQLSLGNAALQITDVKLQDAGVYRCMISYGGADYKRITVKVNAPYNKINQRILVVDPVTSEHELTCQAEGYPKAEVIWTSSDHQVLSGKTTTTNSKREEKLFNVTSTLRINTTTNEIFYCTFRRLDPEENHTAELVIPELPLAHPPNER

The next experiment has as its target T2, PD-L1 (Homo sapiens, UniProt Q9NZQ7).
T2 construct: determine if they can specifically dimerize the extracellular domains of PD-L1
Briefly: PD-L1/PD-L1 dimerization biochemical protein-protein interaction assay (ALPHA). It is filed as binding. Particulars: compound-induced PD-L1 dimerization, head prints '1 nM' (0.5 nM His-tagged PD-L1 and 0.5 nM FLAG-tagged PD-L1), read-out: AC50 PDL1 Dimer Alpha 1 nM. Summed up: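 After 2 h at 25 °C with compound, His- and FLAG-tagged PD-L1 ECDs (each 0.5 nM final; 25 mM Hepes pH 7.4, 150 mM NaCl) were detected by sequential anti-His acceptor and anti-FLAG donor bead incubations. Dose-response curves fitted to four-parameter equation for AC50.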

T1 sequence (Q9NZQ7 19-290): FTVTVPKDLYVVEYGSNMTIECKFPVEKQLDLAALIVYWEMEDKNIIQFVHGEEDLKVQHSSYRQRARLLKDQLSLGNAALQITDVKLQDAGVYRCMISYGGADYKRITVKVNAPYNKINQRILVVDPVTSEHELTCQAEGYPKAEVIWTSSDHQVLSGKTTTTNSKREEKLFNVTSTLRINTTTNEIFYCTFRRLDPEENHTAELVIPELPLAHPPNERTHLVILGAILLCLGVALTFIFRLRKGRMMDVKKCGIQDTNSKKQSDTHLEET
T2 sequence (Q9NZQ7 19-238 limits assumed): as the sequence (Q9NZQ7 19-238 limits assumed) above
T2 sequence (Q9NZQ7 19-238 limits assumed): as above

With `Cc1c(COc2cc(OCc3cncc(C#N)c3)c(CNCCO)cc2Cl)cccc1-c1cccc(-c2ccc(CNCCO)cc2)c1CF` [Example 365, 5-((4-chloro-5-((2′-(fluoromethyl)-4″-(((2-hydroxyethyl)amino)methyl)-2-methyl-[1,1′:3′,1″-terphenyl]-3-yl)methoxy)-2-(((2-hydroxyethyl)amino)methyl)phenoxy)methyl)nicotinonitrile], the EC50 at PD-1/PD-L1 interaction stood at 408 nM. On PD-1/PD-L1, the IC50 came to 1.57 nM. For the same compound, on PD-L1, the AC50 turned out to be 174 nM.

With `Cc1c(COc2cc(OCc3cncc(C#N)c3)c(CN[C@H]3CCCC[C@@H]3O)cc2Cl)cccc1-c1cccc(-c2cccc(OCCNCCO)c2)c1C` [Example 367, 5-((4-chloro-2-((((1S,2S)-2-hydroxycyclohexyl)amino)methyl)-5-((3″-(2-((2-hydroxyethyl)amino)ethoxy)-2,2′-dimethyl-[1,1′:3′,1″-terphenyl]-3-yl)methoxy)phenoxy)methyl)nicotinonitrile], the 50% effective concentration (EC50) at PD-1/PD-L1 interaction is 376 nM. In addition, at PD-1/PD-L1, the IC50 was 2.53 nM. Moreover, the AC50 on PD-L1 was 227 nM.

As to `Cc1c(COc2cc(OCc3cncc(C#N)c3)c(CN[C@@H]3CCC[C@@H]3O)cc2Cl)cccc1-c1cccc(-c2ccc(CN3CC(CC(=O)O)C3)cc2)c1C` [Example 368, 2-(1-((3″-((2-chloro-5-((5-cyanopyridin-3-yl)methoxy)-4-((((1R,2S)-2-hydroxycyclopentyl)amino)methyl)phenoxy)methyl)-2′,2″-dimethyl-[1,1′:3′,1″-terphenyl]-4-yl)methyl)azetidin-3-yl)acetic acid], the 50% effective concentration (EC50) at PD-1/PD-L1 interaction is 118 nM. The IC50 at PD-1/PD-L1 stood at 1.88 nM. Moreover, the concentration at half-maximal activity (AC50) on PD-L1 came out at 274 nM.

With `Cc1c(COc2cc(OCc3cncc(C#N)c3)c(CN[C@@H]3CCC[C@@H]3O)cc2Cl)cccc1-c1cccc(-c2ccc3c(c2)CCC3N2CC[C@H](C(=O)O)C2)c1C` (stereo partly drawn) [Example 369, (3S)-1-(5-(3′-((2-chloro-5-((5-cyanopyridin-3-yl)methoxy)-4-((((1R,2S)-2-hydroxycyclopentyl)amino)methyl)phenoxy)methyl)-2,2′-dimethyl-[1,1′-biphenyl]-3-yl)-2,3-dihydro-1H-inden-1-yl)pyrrolidine-3-carboxylic acid], on PD-1/PD-L1 interaction, the EC50 came out at 107 nM. In addition, the IC50 on PD-1/PD-L1 is 0.164 nM. Also, the AC50 at PD-L1 worked out at 57.6 nM.

Take `Cc1c(COc2cc(OCc3cncc(C#N)c3)c(CN3CC[C@@H](O)C3)cc2Cl)cccc1-c1cccc(-c2ccc3c(c2)CCC3N2CC[C@@H](C(=O)O)C2)c1C` (stereo partly drawn) [Example 370, (3R)-1-(5-(3′-((2-chloro-5-((5-cyanopyridin-3-yl)methoxy)-4-(((R)-3-hydroxypyrrolidin-1-yl)methyl)phenoxy)methyl)-2,2′-dimethyl-[1,1′-biphenyl]-3-yl)-2,3-dihydro-1H-inden-1-yl)pyrrolidine-3-carboxylic acid]: the EC50 on PD-1/PD-L1 interaction was determined as 577 nM. Also, the half-maximal inhibitory concentration (IC50) at PD-1/PD-L1 was 0.139 nM. In addition, on PD-L1, the AC50 amounted to 81.4 nM.

For `Cc1c(COc2cc(OCc3cncc(C#N)c3)c(CN[C@@](C)(CO)C(=O)O)cc2Cl)cccc1-c1cccc(-c2ccc3c(c2)CCC3N2CC(C)C2)c1C` (stereo partly drawn) [Example 371, (2S)-2-((5-chloro-2-((5-cyanopyridin-3-yl)methoxy)-4-((2,2′-dimethyl-3′-(1-(3-methylazetidin-1-yl)-2,3-dihydro-1H-inden-5-yl)-[1,1′-biphenyl]-3-yl)methoxy)benzyl)amino)-3-hydroxy-2-methylpropanoic acid], the EC50 at PD-1/PD-L1 interaction was 210 nM. Also, the IC50 at PD-1/PD-L1 is 0.074 nM. Moreover, the AC50 on PD-L1 turned out to be 78 nM.

Regarding `Cc1c(COc2cc(OCc3cncc(C#N)c3)c(CNC[C@@H](O)CC(=O)O)cc2Cl)cccc1-c1cccc(-c2cc3c(cc2F)C(N(C)C)CC3)c1C` (stereo partly drawn) [Example 372, (3S)-4-((5-chloro-2-((5-cyanopyridin-3-yl)methoxy)-4-((3′-(1-(dimethylamino)-6-fluoro-2,3-dihydro-1H-inden-5-yl)-2,2′-dimethyl-[1,1′-biphenyl]-3-yl)methoxy)benzyl)amino)-3-hydroxybutanoic acid], the EC50 at PD-1/PD-L1 interaction came out at 860 nM. The concentration for half-maximal inhibition (IC50) at PD-1/PD-L1 turned out to be 1.13 nM. The AC50 at PD-L1 came to 425 nM.

With `Cc1c(COc2cc(OCc3cncc(C#N)c3)c(CNCCO)cc2Cl)cccc1-c1cccc(-c2ccc3c(c2)CCC3N2CC[C@H](O)C2)c1C` (stereo partly drawn) [Example 373, 5-((4-chloro-2-(((2-hydroxyethyl)amino)methyl)-5-((3′-(1-((S)-3-hydroxypyrrolidin-1-yl)-2,3-dihydro-1H-inden-5-yl)-2,2′-dimethyl-[1,1′-biphenyl]-3-yl)methoxy)phenoxy)methyl)nicotinonitrile], the half-maximal effective concentration (EC50) on PD-1/PD-L1 interaction was 339 nM. On PD-1/PD-L1, the concentration for half-maximal inhibition (IC50) is 2.59 nM. Moreover, on PD-L1, the AC50 worked out at 168 nM.

On to `Cc1c(COc2cc(OCc3cncc(C#N)c3)c(CN[C@@](C)(CO)C(=O)O)cc2Cl)cccc1-c1cccc(-c2ccc(C3CCCN3CCO)cc2)c1C` (stereo partly drawn) [Example 374, (2S)-2-((5-chloro-2-((5-cyanopyridin-3-yl)methoxy)-4-((4″-(1-(2-hydroxyethyl)pyrrolidin-2-yl)-2,2′-dimethyl-[1,1′:3′,1″-terphenyl]-3-yl)methoxy)benzyl)amino)-3-hydroxy-2-methylpropanoic acid], for which, on PD-1/PD-L1 interaction, the EC50 stood at 788 nM. For the same compound, the IC50 at PD-1/PD-L1 came to 0.136 nM. Moreover, on PD-L1, the AC50 was 165 nM.

Take `Cc1c(COc2cc(OCc3cncc(C#N)c3)c(CN[C@@](C)(CO)C(=O)O)cc2Cl)cccc1-c1cccc(-c2ccc3c(c2)CCC3N(C)CCO)c1C` (stereo partly drawn) [Example 375, (2S)-2-((5-chloro-2-((5-cyanopyridin-3-yl)methoxy)-4-((3′-(1-((2-hydroxyethyl)(methyl)amino)-2,3-dihydro-1H-inden-5-yl)-2,2′-dimethyl-[1,1′-biphenyl]-3-yl)methoxy)benzyl)amino)-3-hydroxy-2-methylpropanoic acid]: at PD-1/PD-L1 interaction, the EC50 is 389 nM. The IC50 at PD-1/PD-L1 was 0.21 nM. Further, the AC50 on PD-L1 turned out to be 173 nM.

In the case of `Cc1c(COc2cc(OCc3cncc(C#N)c3)c(CN3C[C@@H](O)C[C@H]3C(=O)O)cc2Cl)cccc1-c1cccc(-c2ccc3c(c2)CC[C@H]3N(C)C)c1C` [Example 377, (2S,4S)-1-(5-chloro-2-((5-cyanopyridin-3-yl)methoxy)-4-((3′-((R)-1-(dimethylamino)-2,3-dihydro-1H-inden-5-yl)-2,2′-dimethyl-[1,1′-biphenyl]-3-yl)methoxy)benzyl)-4-hydroxypyrrolidine-2-carboxylic acid], the concentration giving a half-maximal response (EC50) at PD-1/PD-L1 interaction is 262 nM. On PD-1/PD-L1, the IC50 was determined as 0.178 nM. Further, the AC50 at PD-L1 turned out to be 231 nM.

Consider `Cc1c(COc2cc(OCc3cncc(C#N)c3)c(CNCCO)cc2Cl)cccc1-c1cccc(-c2ccc(C3CCCN3)cc2)c1C` (stereo not drawn) [Example 379, 5-((4-chloro-5-((2,2′-dimethyl-4″-(pyrrolidin-2-yl)-[1,1′:3′,1″-terphenyl]-3-yl)methoxy)-2-(((2-hydroxyethyl)amino)methyl)phenoxy)methyl)nicotinonitrile], for which, at PD-1/PD-L1 interaction, the EC50 was 415 nM. The IC50 at PD-1/PD-L1 is 2.38 nM. Besides, the half-maximal activity concentration (AC50) on PD-L1 turned out to be 153 nM.

Take `Cc1c(COc2cc(OCc3cncc(C#N)c3)c(CNC[C@@H](O)CC(=O)O)cc2Cl)cccc1-c1cccc(-c2ccc([C@H](C)N(C)C)cc2)c1C` [Example 380, (S)-4-((5-chloro-2-((5-cyanopyridin-3-yl)methoxy)-4-((4″-((S)-1-(dimethylamino)ethyl)-2,2′-dimethyl-[1,1′:3′,1″-terphenyl]-3-yl)methoxy)benzyl)amino)-3-hydroxybutanoic acid]: the EC50 at PD-1/PD-L1 interaction stood at 652 nM. The IC50 at PD-1/PD-L1 came out at 0.282 nM. Moreover, the AC50 on PD-L1 amounted to 184 nM.

In the case of `Cc1c(COc2cc(OCc3cncc(C#N)c3)c(CNC[C@@H](O)CC(=O)O)cc2Cl)cccc1-c1cccc(-c2ccc3c(c2)CCC3N(C)C)c1C` (stereo partly drawn) [Example 381, (3S)-4-((5-chloro-2-((5-cyanopyridin-3-yl)methoxy)-4-((3′-(1-(dimethylamino)-2,3-dihydro-1H-inden-5-yl)-2,2′-dimethyl-[1,1′-biphenyl]-3-yl)methoxy)benzyl)amino)-3-hydroxybutanoic acid], the 50% effective concentration (EC50) at PD-1/PD-L1 interaction worked out at 219 nM. On PD-1/PD-L1, the IC50 was determined as 0.158 nM. Further, the AC50 on PD-L1 is 144 nM.

As for `Cc1c(COc2cc(OCc3cncc(C#N)c3)c(CN(C)C)cc2Cl)cccc1-c1cccc(-c2ccc(CN(C)C)nc2)c1C` [Example 382, 5-((4-chloro-2-((dimethylamino)methyl)-5-((3′-(6-((dimethylamino)methyl)pyridin-3-yl)-2,2′-dimethyl-[1,1′-biphenyl]-3-yl)methoxy)phenoxy)methyl)nicotinonitrile], the half-maximal effective concentration (EC50) at PD-1/PD-L1 interaction came out at 1230 nM. The IC50 on PD-1/PD-L1 was 0.304 nM. Moreover, the AC50 at PD-L1 came out at 334 nM.

For the origin of these results see patent publication US12590062B2, “PD-1/PD-L1 inhibitors” (Gilead Sciences, Inc., priority 2017, dated 2026).
